Read-outs that look alike come from different tables or passages of the source. Some results are limits rather than exact numbers.

The record followed here is patent publication US11542288B2, “Antiviral compounds” (priority 2020, dated 2023).

The target of one test is T1, HIV-1 protease 10 Mutant (Human immunodeficiency virus type 1 group M subtype B, UniProt P12497).
T1 construct: onto NL4-3 wild-type protease on a pET11a plasmid with codon optimization for protein expression in Escherichia coli; A Q7K mutation was included to prevent autoproteolysis
In words: HIV enzyme inhibition assay (Ki), 10 Mutant variant. Format: biochemical. The following applies: drug-resistant protease variant 10 Mutant.

The target in a further test is T2, HIV-1 protease I84V (Human immunodeficiency virus type 1 group M subtype B, UniProt P12497, I572V/Q495K).
T2 construct: onto NL4-3 wild-type protease on a pET11a plasmid; made in house
The experiment in a line: HIV enzyme inhibition assay (Ki), I84V variant. In kind it is biochemical. The following applies: drug-resistant protease variant I84V.

For the next test, the system named is wild-type HIV-1. The experiment in a line: HIV antiviral assay (293T / TZM-BL luciferase). Format: cell-based. Particulars: read-out: Antiviral WT EC50.
The target of the next test is T3, HIV-1 protease 8 Mutant (Human immunodeficiency virus type 1 group M subtype B, UniProt P12497).
T3 construct: onto NL4-3 wild-type protease on a pET11a plasmid with codon optimization for protein expression in Escherichia coli; A Q7K mutation was included to prevent autoproteolysis
The experiment in a line: HIV enzyme inhibition assay (Ki), 8 Mutant variant. Format: biochemical. Particulars: drug-resistant protease variant 8 Mutant.

Another test addresses T4, HIV-1 protease I50V/A71V (Human immunodeficiency virus type 1 group M subtype B, UniProt P12497, A559V/I538V/Q495K).
T4 construct: onto NL4-3 wild-type protease on a pET11a plasmid; made in house
The experiment in a line: HIV enzyme inhibition assay (Ki), I50V/A71V variant. The following applies: drug-resistant protease variant I50V/A71V. Format: biochemical.

The next test addresses HIV-1 protease KY24 (Human immunodeficiency virus type 1, UniProt P12497). Particulars: read-out: Ki KY24; drug-resistant protease variant KY24.
A further test concerns the target T5, HIV-1 protease 11 Mutant (Human immunodeficiency virus type 1 group M subtype B, UniProt P12497).
T5 construct: onto NL4-3 wild-type protease on a pET11a plasmid with codon optimization for protein expression in Escherichia coli; A Q7K mutation was included to prevent autoproteolysis
In words: HIV enzyme inhibition assay (Ki), 11 Mutant variant. Format: biochemical. Particulars: drug-resistant protease variant 11 Mutant.

Test [1] concerns the target T6, HTLV-1 protease (Human T-cell leukemia virus type I, UniProt Q82134, L40I). In words: biochemical.
Test [2] concerns the target T6, HTLV-1 protease. The following applies: read-out: Ki against HTLV-1 protease; 1 μM protein, MA/CA FRET substrate.

T6 sequence (Q82134 entry or part of it L40I): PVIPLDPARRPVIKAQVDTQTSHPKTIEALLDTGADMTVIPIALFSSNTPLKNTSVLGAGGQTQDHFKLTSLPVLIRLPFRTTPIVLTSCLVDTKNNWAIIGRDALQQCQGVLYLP

With `CCOP(=O)(COc1ccc(C[C@H](NC(=O)O[C@H]2CO[C@H]3OCC[C@H]32)[C@H](O)CN(CC(CC)CC)S(=O)(=O)c2ccc3ncsc3c2)cc1)OCC` [Example 12, (3R,3aS,6aR)-hexahydrofuro[2,3-b]furan-3-yl ((2S,3R)-1-(4-((diethoxyphosphoryl)methoxy)phenyl)-4-(N-(2-ethylbutyl)benzo[d]thiazole-6-sulfonamido)-3-hydroxybutan-2-yl)carbamate], the Ki (commonly the equilibrium dissociation constant of an inhibitor or competing ligand from its target) is 0.24 ± 0.09 nM on HIV-1 protease 10 Mutant, < 0.005 nM on HIV-1 protease I84V, 0.25 ± 0.08 nM at HIV-1 protease 8 Mutant and < 0.005 nM on HIV-1 protease I50V/A71V. The EC50 (usually the midpoint of the concentration-response curve) in the test with wild-type HIV-1 was 10.7 nM.
For `CCOP(=O)(COc1ccc(C[C@H](NC(=O)O[C@H]2CO[C@H]3OCC[C@H]32)[C@H](O)CN(CC(CC)CC)S(=O)(=O)c2ccc(CO)cc2)cc1)OCC` [Example 13, (3R,3aS,6aR)-hexahydrofuro[2,3-b]furan-3-yl ((2S,3R)-1-(4-((diethoxyphosphoryl)methoxy)phenyl)-4-((N-(2-ethylbutyl)-4-(hydroxymethyl)phenyl)sulfonamido)-3-hydroxybutan-2-yl)carbamate], the inhibitory constant (Ki) was 32.1 ± 4.3 nM at HIV-1 protease 10 Mutant; 0.6 ± 0.1 nM on HIV-1 protease KY24; < 0.005 nM at HIV-1 protease I84V; 2.2 ± 0.4 nM at HIV-1 protease 8 Mutant; < 0.005 nM on HIV-1 protease I50V/A71V; 81.2 ± 10.8 nM at HIV-1 protease 11 Mutant. Moreover, in the test with wild-type HIV-1, the EC50 turned out to be 17 nM.
Take `CCOP(=O)(COc1ccc(C[C@H](NC(=O)O[C@H]2CO[C@H]3OCC[C@H]32)[C@H](O)CN(CC(C)C)S(=O)(=O)c2ccc3ncsc3c2)cc1)OCC` [Example 10, (3R,3aS,6aR)-hexahydrofuro[2,3-b]furan-3-yl ((2S,3R)-1-(4-((diethoxyphosphoryl)methoxy)phenyl)-3-hydroxy-4-(N-isobutylbenzo [d]thiazole-6-sulfonamido)butan-2-yl)carbamate]: the Ki at HIV-1 protease 10 Mutant is 1.9 ± 0.3 nM; at HIV-1 protease KY24 it was 0.23 ± 0.02 nM; on HIV-1 protease I84V it was < 0.005 nM; on HIV-1 protease 8 Mutant it was 0.93 ± 0.2 nM; on HIV-1 protease I50V/A71V it was < 0.005 nM; on HIV-1 protease 11 Mutant, 15 ± 3.5 nM. Moreover, the EC50 in the test on wild-type HIV-1 amounted to 10.4 nM.
For the compound `CCOP(=O)(COc1ccc(C[C@H](NC(=O)O[C@H]2CO[C@H]3OCC[C@H]32)[C@H](O)CN(C[C@@H](C)CC)S(=O)(=O)c2ccc(OC)cc2)cc1)OCC` [Example 3, (3R,3aS,6aR)-hexahydrofuro [2,3-b]furan-3-yl ((2S,3R)-1-(4-((diethoxyphosphoryl)methoxy)phenyl)-3-hydroxy-4-((4-methoxy-N—((S)-2-methylbutyl)phenyl)sulfonamido)butan-2-yl)carbamate], the inhibitory constant (Ki) on HIV-1 protease 10 Mutant is 3.7 ± 0.3 nM; at HIV-1 protease KY24, 0.16 ± 0.02 nM; on HIV-1 protease I84V, < 0.005 nM; at HIV-1 protease 8 Mutant, 0.78 ± 0.07 nM; at HIV-1 protease I50V/A71V, < 0.005 nM; at HIV-1 protease 11 Mutant it was 10.5 ± 0.9 nM. For the same compound, the EC50 with wild-type HIV-1 came out at 7.8 nM.
As to `CCOP(=O)(COc1ccc(C[C@H](NC(=O)O[C@H]2CO[C@H]3OCC[C@H]32)[C@H](O)CN(C[C@@H](C)CC)S(=O)(=O)c2ccc(N)cc2)cc1)OCC` [Example 5, (3R,3aS,6aR)-hexahydrofuro[2,3-b]furan-3-yl ((2S,3R)-4-((4-amino-N—((S)-2-methylbutyl)phenyl)sulfonamido)-1-(4-((diethoxyphosphoryl)methoxy)phenyl)-3-hydroxybutan-2-yl)carbamate], the Ki on HIV-1 protease 10 Mutant is 146 ± 10 nM; at HIV-1 protease KY24, 2.31 ± 0.09 nM; on HIV-1 protease I84V, < 0.005 nM; on HIV-1 protease 8 Mutant, 13.3 ± 3.5 nM; at HIV-1 protease I50V/A71V it was < 0.005 nM; at HIV-1 protease 11 Mutant it was 259 ± 17 nM. The EC50 with wild-type HIV-1 is 22.9 nM.
Regarding `CCOP(=O)(COc1ccc(C[C@H](NC(=O)O[C@H]2CO[C@H]3OCC[C@H]32)[C@H](O)CN(CC(C)C)S(=O)(=O)c2ccc3c(c2)OCO3)cc1)OCC` [Example 9, (3R,3aS,6aR)-hexahydrofuro[2,3-b]furan-3-yl ((2S,3R)-1-(4-((diethoxyphosphoryl)methoxy)phenyl)-3-hydroxy-4-(N-isobutylbenzo[d][1,3]dioxole-5-sulfonamido)butan-2-yl)carbamate], the Ki at HIV-1 protease 10 Mutant is 4.5 ± 0.8 nM; on HIV-1 protease KY24, 0.36 ± 0.05 nM; on HIV-1 protease I84V, < 0.005 nM; at HIV-1 protease 8 Mutant, 2.2 ± 0.5 nM; at HIV-1 protease I50V/A71V it was < 0.005 nM; at HIV-1 protease 11 Mutant, 63.5 ± 15.2 nM. In the test on wild-type HIV-1, the EC50 was determined as 5.67 nM.
As for `CCOP(=O)(COc1ccc(C[C@H](NC(=O)O[C@H]2CO[C@H]3OCC[C@H]32)[C@H](O)CN(C[C@@H](C)CC)S(=O)(=O)c2ccc(CO)cc2)cc1)OCC` [Example 6, (3R,3aS,6aR)-hexahydrofuro[2,3-b]furan-3-yl ((2S,3R)-1-(4-((diethoxyphosphoryl)methoxy)phenyl)-3-hydroxy-4-((4-(hydroxymethyl)-N—((S)-2-methylbutyl)phenyl)sulfonamido)butan-2-yl)carbamate], the inhibition constant (Ki) at HIV-1 protease 10 Mutant is 52.9 ± 4.2 nM; at HIV-1 protease KY24 it was 1.89 ± 0.17 nM; on HIV-1 protease I84V, < 0.005 nM; on HIV-1 protease 8 Mutant, 4.98 ± 0.4 nM; on HIV-1 protease I50V/A71V, < 0.005 nM; at HIV-1 protease 11 Mutant, 103 ± 3 nM. Besides, the EC50 with wild-type HIV-1 worked out at 27.3 nM.
Consider `CCOP(=O)(COc1ccc(C[C@H](NC(=O)O[C@H]2CO[C@H]3OCC[C@H]32)[C@H](O)CN(C[C@@H](C)CC)S(=O)(=O)c2ccc3ncsc3c2)cc1)OCC` [Example 11, (3R,3aS,6aR)-hexahydrofuro[2,3-b]furan-3-yl ((2S,3R)-1-(4-((diethoxyphosphoryl)methoxy)phenyl)-3-hydroxy-4-(N—((S)-2-methylbutyl)benzo[d]thiazole-6-sulfonamido)butan-2-yl)carbamate], for which the Ki at HIV-1 protease 10 Mutant was 1.2 ± 0.4 nM; on HIV-1 protease KY24 it was 0.09 ± 0.01 nM; on HIV-1 protease I84V, < 0.005 nM; on HIV-1 protease 8 Mutant it was 1.8 ± 0.5 nM; at HIV-1 protease I50V/A71V, < 0.005 nM; at HIV-1 protease 11 Mutant, 9.03 ± 4.21 nM. Besides, the EC50 in the test with wild-type HIV-1 was found to be 9.93 nM.
Regarding `CCOP(=O)(COc1ccc(C[C@H](NC(=O)O[C@H]2CO[C@H]3OCC[C@H]32)[C@H](O)CN(CC(CC)CC)S(=O)(=O)c2ccc(OC)cc2)cc1)OCC` [Example 8, (3R,3aS,6aR)-hexahydrofuro[2,3-b]furan-3-yl ((2S,3R)-1-(4-((diethoxyphosphoryl)methoxy)phenyl)-4-((N-(2-ethylbutyl)-4-methoxyphenyl)sulfonamido)-3-hydroxybutan-2-yl)carbamate], the Ki at HIV-1 protease 10 Mutant was 1.26 ± 0.08 nM; at HIV-1 protease KY24, 0.16 ± 0.04 nM; on HIV-1 protease I84V, < 0.005 nM; at HIV-1 protease 8 Mutant, 0.77 ± 0.06 nM; on HIV-1 protease I50V/A71V it was < 0.005 nM; at HIV-1 protease 11 Mutant, 2.2 ± 0.2 nM. In addition, the EC50 with wild-type HIV-1 was 5.15 nM.
As to `CCOP(=O)(COc1ccc(C[C@H](NC(=O)O[C@H]2CO[C@H]3OCC[C@H]32)[C@H](O)CN(CC(CC)CC)S(=O)(=O)c2ccc3c(c2)OCO3)cc1)OCC` [Example 4, (3R,3aS,6aR)-hexahydrofuro[2,3-b]furan-3-yl ((2S,3R)-1-(4-((diethoxyphosphoryl)methoxy)phenyl)-4-(N-(2-ethylbutyl)benzo[d][1,3]dioxole-5-sulfonamido)-3-hydroxybutan-2-yl)carbamate], the Ki was 1.6 ± 0.06 nM at HIV-1 protease 10 Mutant; 0.08 ± 0.03 nM on HIV-1 protease KY24; < 0.005 nM on HIV-1 protease I84V; 0.37 ± 0.03 nM on HIV-1 protease 8 Mutant; < 0.005 nM on HIV-1 protease I50V/A71V; 6.9 ± 0.5 nM on HIV-1 protease 11 Mutant. Moreover, the EC50 in the test on wild-type HIV-1 was determined as 3.11 nM.
Consider `CC(C)(C)NC(=O)[C@@H]1CN(Cc2cccnc2)CCN1C[C@@H](O)C[C@@H](Cc1ccccc1)C(=O)N[C@H]1c2ccccc2C[C@H]1O` [IDV, indinavir, reference compound], for which the values for the inhibition constant (Ki) at HTLV-1 protease [1] and on HTLV-1 protease [2] were 60000 nM and 62700 nM, respectively.
